How the values were obtained:
Assay in all cases: relative viability (nuclei count vs DMSO), 5 days (fraction); higher = more cells survive
VX-702 + Crizotinib = compound: NC(=O)c1ccc(N(C(N)=O)c2c(F)cccc2F)nc1-c1ccc(F)cc1F [VX-702] + C[C@@H](Oc1cc(-c2cnn(C3CCNCC3)c2)cnc1N)c1c(Cl)ccc(F)c1Cl [Crizotinib] (partner 1 µM)
Summary of the method: (§1)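 For relative viability, nuclei counts in treated wells were divided by those in vehicle wells. Lung cancer cell lines had been pin-tool dosed in 1536-well plates the day after seeding and cultured for 5 days, then fixed and stained in one step (final 0.05% Triton X-100, 1% formaldehyde, 1 ug/ml Hoechst) and imaged at 4×. Doses were one drug alone or a fixed anchor-drug dose plus five library-drug doses (not always all listed) in √10 steps, and values are duplicate-plate medians.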

VX-702 + Pemetrexed = compound: NC(=O)c1ccc(N(C(N)=O)c2c(F)cccc2F)nc1-c1ccc(F)cc1F [VX-702] + Nc1nc2[nH]cc(CCc3ccc(C(=O)N[C@@H](CCC(=O)O)C(=O)O)cc3)c2c(=O)[nH]1 [Pemetrexed] (partner 0.2 µM)
Summary of the method: as §1

Dabrafenib + Linsitinib = compound: CC(C)(C)c1nc(-c2cccc(NS(=O)(=O)c3c(F)cccc3F)c2F)c(-c2ccnc(N)n2)s1 [Dabrafenib] + C[C@]1(O)C[C@@H](c2nc(-c3ccc4ccc(-c5ccccc5)nc4c3)c3c(N)nccn32)C1 [Linsitinib] (partner 1 µM)
Summary of the method: as §1

VX-702 + Olaparib = compound: NC(=O)c1ccc(N(C(N)=O)c2c(F)cccc2F)nc1-c1ccc(F)cc1F [VX-702] + O=C(c1cc(Cc2n[nH]c(=O)c3ccccc23)ccc1F)N1CCN(C(=O)C2CC2)CC1 [Olaparib] (partner 8 µM)
Summary of the method: as §1

Row | Cell Line | relative viability (VX-702 + Crizotinib; first compound 0.02 µM) | relative viability (VX-702 + Crizotinib; first compound 0.2 µM) | relative viability (VX-702 + Crizotinib; first compound 0.6325 µM) | relative viability (VX-702 + Crizotinib; first compound 2 µM) | relative viability (VX-702 + Pemetrexed; first compound 0.02 µM) | relative viability (VX-702 + Pemetrexed; first compound 0.2 µM) | relative viability (VX-702 + Pemetrexed; first compound 0.6325 µM) | relative viability (VX-702 + Pemetrexed; first compound 2 µM) | relative viability (Dabrafenib + Linsitinib; first compound 0.003 µM) | relative viability (Dabrafenib + Linsitinib; first compound 0.009487 µM) | relative viability (Dabrafenib + Linsitinib; first compound 0.03 µM) | relative viability (Dabrafenib + Linsitinib; first compound 0.09487 µM) | relative viability (Dabrafenib + Linsitinib; first compound 0.3 µM) | relative viability (VX-702 + Olaparib; first compound 0.02 µM) | relative viability (VX-702 + Olaparib; first compound 0.2 µM) | relative viability (VX-702 + Olaparib; first compound 0.6325 µM) | relative viability (VX-702 + Olaparib; first compound 2 µM)
1 | NCI-H460 | 0.835 | 0.951 | 0.958 | 1.05 | 0.0627 | 0.0509 | 0.055 | 0.057 | 0.84 | 0.952 | 0.68 | 0.757 | 0.826 | 0.428 | 0.438 | 0.548 | 0.26
2 | NCI-H1755 | 0.919 | 0.784 | 0.894 | 0.972 | 0.473 | 0.404 | 0.384 | 0.378 | 0.917 | 0.984 | 0.887 | 0.975 | 0.99 | 0.911 | 0.897 | 0.799 | 0.876
3 | PC-14 | 0.874 | 0.86 | 0.818 | 1.02 | 0.142 | 0.15 | 0.124 | 0.119 | 0.956 | 1.03 | 0.957 | 0.975 | 0.984 | 0.315 | 0.329 | 0.338 | 0.282
4 | 201T | 1.01 | 1.02 | 1.08 | 1.04 | 0.36 | 0.331 | 0.339 | 0.34 | 0.918 | 1.07 | 0.941 | 1.03 | 1.05 | 0.832 | 0.882 | 0.894 | 0.898
5 | COR-L 105 | 0.653 | 0.79 | 0.956 | 1.21 | 1.06 | 1 | 1.14 | 1.25 | 0.959 | 0.943 | 0.908 | 0.88 | 1.07 | 0.633 | 0.658 | 0.768 | 0.859
6 | A-427 | 0.824 | 0.81 | 0.808 | 1.01 | 1.06 | 0.993 | 0.986 | 1.06 | – | 1.13 | 1 | 0.949 | 1.1 | 0.779 | 0.751 | 0.725 | 0.943
7 | NCI-H1734 | 0.593 | 0.55 | 0.573 | 0.71 | 0.386 | 0.377 | 0.413 | 0.409 | – | 0.924 | 0.602 | 0.701 | 0.893 | 0.637 | 0.547 | 0.51 | 0.523
8 | NCI-H1944 | 0.963 | 1.01 | 0.985 | 0.829 | 0.58 | 0.603 | 0.635 | 0.382 | 1.17 | 1.28 | 1.06 | 1.18 | 1.14 | 0.413 | 0.435 | 0.432 | 0.403
9 | LOU-NH91 | 0.711 | 0.741 | 0.786 | 0.659 | 0.383 | 0.366 | 0.385 | 0.412 | – | 1.15 | 0.93 | 0.91 | 0.944 | 0.888 | 0.891 | 0.911 | 0.881
10 | NCI-H2009 | 1.11 | 1.13 | 1.18 | 1.25 | 1.12 | 1.08 | 1.03 | 1.15 | 1.16 | 1.09 | 1.08 | 1.01 | 0.861 | 0.751 | 0.705 | 0.739 | 0.842
11 | NCI-H1792 | 1 | 0.913 | 0.992 | 1.17 | 0.815 | 0.777 | 0.881 | 0.862 | – | 0.599 | 0.485 | 0.528 | 0.394 | 0.396 | 0.434 | 0.356 | 0.444
12 | HCC-15 | 0.873 | 0.834 | 0.759 | 0.848 | 0.223 | 0.22 | 0.227 | 0.248 | 0.851 | 0.996 | 0.917 | 0.821 | 0.951 | 0.752 | 0.712 | 0.692 | 0.719
13 | EPLC-272H | 0.968 | 0.773 | 0.983 | 1.16 | 0.354 | 0.402 | 0.318 | 0.403 | – | 1.36 | 1.02 | 0.939 | 0.918 | 0.856 | 1.07 | 0.799 | 1.07
14 | SW 1573 | 0.8 | 0.721 | 0.773 | 0.784 | 0.759 | 0.914 | 0.775 | 0.741 | 0.827 | 0.844 | 0.722 | 0.792 | 0.821 | 0.495 | 0.445 | 0.438 | 0.448
15 | LXF-289 | 0.924 | 0.802 | 0.874 | 0.864 | 0.935 | 0.894 | 0.9 | 0.947 | 0.992 | 0.976 | 1.04 | 0.954 | 1.08 | 1.08 | 1.07 | 1.06 | 1.1
16 | NCI-H2023 | 0.586 | 0.563 | 0.555 | 0.698 | 0.231 | 0.264 | 0.199 | 0.198 | 0.639 | 0.667 | 0.595 | 0.715 | 0.792 | 0.459 | 0.461 | 0.552 | 0.637
17 | HARA | 1.1 | 0.982 | 1.07 | 1.13 | 0.235 | – | 0.277 | 0.256 | 0.973 | 0.869 | 0.841 | 0.905 | 1.3 | 0.87 | – | 0.779 | 0.964
18 | SK-LU-1 | 0.96 | 0.751 | 0.934 | 0.963 | 1.01 | 0.965 | 0.936 | 1.04 | 0.799 | 1 | 0.813 | 0.968 | 0.833 | 0.504 | 0.435 | 0.526 | 0.567
19 | LCLC-97TM1 | 0.285 | 0.342 | 0.421 | 0.558 | 0.167 | 0.171 | 0.141 | 0.193 | – | 0.18 | 0.187 | – | 0.192 | 0.428 | 0.307 | 0.502 | 0.69

Reference: the supplement of paper PMC10307832
